In patent US20150086480A1, “HETEROARYL INHIBITORS OF PDE4” (Tetra Discovery Partners, LLC, priority 2013, published 2015):

Legend:
[1] = molecular target: human PDE4D7 (mutation of serine 54 to aspartic acid) (Homo sapiens, UniProt Q08499, S190D); assay: Kinetic assay of PDE4 activity (cAMP hydrolysis, coupled-enzyme fluorescence); type: biochemical; settings: inhibition of cAMP hydrolysis by human PDE4D; each concentration tested in duplicate; FIG. 1; read-out: One-half maximal inhibition of PDE4D (IC50)
human PDE4D7 (mutation of serine 54 to aspartic acid), sequence (Q08499 1-748 isoform Q08499-11 S129D): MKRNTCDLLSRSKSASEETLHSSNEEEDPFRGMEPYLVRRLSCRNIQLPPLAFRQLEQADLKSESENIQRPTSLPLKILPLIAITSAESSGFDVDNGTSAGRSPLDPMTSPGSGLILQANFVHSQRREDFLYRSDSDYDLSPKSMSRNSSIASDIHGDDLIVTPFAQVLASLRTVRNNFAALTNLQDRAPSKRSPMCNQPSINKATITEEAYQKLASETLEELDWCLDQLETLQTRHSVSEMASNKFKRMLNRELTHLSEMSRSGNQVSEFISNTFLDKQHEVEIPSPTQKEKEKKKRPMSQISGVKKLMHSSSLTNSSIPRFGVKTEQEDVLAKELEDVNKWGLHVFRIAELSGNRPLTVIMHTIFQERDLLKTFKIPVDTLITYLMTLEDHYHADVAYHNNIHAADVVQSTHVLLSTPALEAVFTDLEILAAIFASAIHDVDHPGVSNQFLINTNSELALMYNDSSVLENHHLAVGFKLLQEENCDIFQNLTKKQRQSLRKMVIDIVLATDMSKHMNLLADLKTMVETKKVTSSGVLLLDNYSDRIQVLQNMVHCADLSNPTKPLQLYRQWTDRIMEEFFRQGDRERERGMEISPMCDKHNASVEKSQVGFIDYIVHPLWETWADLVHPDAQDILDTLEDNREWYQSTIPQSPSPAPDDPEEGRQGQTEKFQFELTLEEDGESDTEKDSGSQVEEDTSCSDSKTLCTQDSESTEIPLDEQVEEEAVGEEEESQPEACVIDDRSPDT
Description: PDE4D inhibition is measured by the method of Burgin et al, (2010) Design of Phosphodiesterase Type 4D (PDE4D) Allosteric Modulators for Cognition with Improved Safety. Nature Biotechnology 28:63-70. Each concentration of Example 1 was tested in duplicate (round symbols).
PDE4 activity may be measured by any method known in the art. Here, a kinetic assay of cAMP hydrolysis by purified PDE4 was used, in which PDE4 activity was measured by coupling the formation of the PDE4 reaction product, 5′-adenosine monophosphate, to the oxidation of reduced nicotinamide adenine dinucleotide (NADH) by the use of three coupling enzymes (myokinase, pyruvate kinase and lactate dehydrogenase), which allows fluorescent determination of reaction rates. Assays are performed in 96-well plates in a total volume of 200 μl/well. Compounds are dissolved in dimethylsulfoxide (DMSO) and added to plates in a volume of 10 μl followed by addition of 165 μl of assay mix. Plates are pre-incubated at 25° C. for 15 min and the reactions are initiated by the addition of 25 μl of cAMP followed by thorough mixing. Reaction rates are measured by monitoring the decrease in fluorescence using excitation at 355 nm and emission at 460 nm for a period of 10 min in a fluorescence plate reader. Initial rates (slopes) are determined from linear portions of the progress curves. […]

recombinant human PDE4 = settings: read-out: reported IC50 with respect to inhibiting recombinant human PDE4; cited from earlier work

Structure (SMILES)	IC50 [1] [nM]	IC50 (recombinant human PDE4) [nM]
O=[N+]([O-])c1cccc(-c2cc(Cc3ccc(F)cc3)cc3c2OCC3)c1 [Example 1, 5-[(4-fluorophenyl)methyl]-7-(3-nitrophenyl)-2,3-dihydrobenzofuran]	0.15	–
COc1ccc(C2CNC(=O)C2)cc1OC1CCCC1 (centres unmarked) [rolipram]	–	~200
